Among the data in patent US12528791B2 (priority 2019, dated 2026) are THRβ-Selectivity values, retold here.

For experiment [1], the target named is T1, THR-β/RXR-α (Homo sapiens, UniProt P10828).
T1 sequence (P10828 202-461 limits assumed): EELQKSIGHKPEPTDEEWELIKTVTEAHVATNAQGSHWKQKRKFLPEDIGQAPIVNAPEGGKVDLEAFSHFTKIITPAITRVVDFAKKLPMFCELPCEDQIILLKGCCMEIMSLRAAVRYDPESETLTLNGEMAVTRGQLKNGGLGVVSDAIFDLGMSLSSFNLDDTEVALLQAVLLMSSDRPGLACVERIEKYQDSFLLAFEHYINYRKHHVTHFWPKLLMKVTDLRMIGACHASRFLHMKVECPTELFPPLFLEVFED
T1 sequence (P19793 225-462 partner limits assumed): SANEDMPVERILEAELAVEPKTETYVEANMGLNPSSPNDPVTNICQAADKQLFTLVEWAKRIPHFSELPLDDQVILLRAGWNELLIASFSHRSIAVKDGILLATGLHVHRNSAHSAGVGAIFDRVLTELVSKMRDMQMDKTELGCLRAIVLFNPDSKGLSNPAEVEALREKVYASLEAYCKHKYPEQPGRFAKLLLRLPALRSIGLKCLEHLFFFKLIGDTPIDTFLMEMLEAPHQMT
T1 sequence (Q15596 679-703 partner limits assumed): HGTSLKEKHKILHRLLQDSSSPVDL
Type of experiment: biochemical. The settings on record: RXR heterodimer assay; compound activity normalized to T3 for THR-β/RXR-α and THR-α/RXR-α.

Experiment [2] concerns the target T2, TR beta-LBD (Homo sapiens, UniProt P10828).
T2 sequence (P10828 217-461 limits assumed): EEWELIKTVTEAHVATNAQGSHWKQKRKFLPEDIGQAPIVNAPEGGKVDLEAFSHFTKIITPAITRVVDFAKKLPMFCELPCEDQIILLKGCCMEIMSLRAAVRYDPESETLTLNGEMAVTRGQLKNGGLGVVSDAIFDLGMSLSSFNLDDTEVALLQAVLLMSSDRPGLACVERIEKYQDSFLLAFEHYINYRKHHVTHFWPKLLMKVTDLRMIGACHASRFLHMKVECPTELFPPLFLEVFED
The format is biochemical. The settings on record: TR-FRET assay; THR beta over THR alpha, derived from T3-selectivity normalized data. For orientation: In TR-FRET formats the signal depends on donor and acceptor labels being close together.

Consider `Cn1cnc2cnc(Oc3c(Cl)cc(NC(=O)c4noc(=O)[nH]4)cc3Cl)cc21` [Example 11, N-(3,5-dichloro-4-((1-methyl-1H-imidazo[4,5-c]pyridin-6-yl)oxy)phenyl)-5-oxo-4,5-dihydro-1,2,4-oxadiazole-3-carboxamide], for which the values for the THRβ-Selectivity in experiment [1] and in experiment [2] were 10.4 and above 30.5, respectively. For `Cc1ccnc2ccc(Oc3c(Cl)cc(-n4nc(C#N)c(=O)[nH]c4=O)cc3Cl)cc12` [Example 15, 2-(3,5-dichloro-4-((4-methylquinolin-6-yl)oxy)phenyl)-3,5-dioxo-2,3,4,5-tetrahydro-1,2,4-triazine-6-carbonitrile], in that order: 15.4 and 15.9. For the compound `N#Cc1nn(-c2cc(Cl)c(Oc3ccc4nc5n(c4c3)CCCO5)c(Cl)c2)c(=O)[nH]c1=O` [Example 40, 2-(3,5-dichloro-4-((3,4-dihydro-2H-benzo[4,5]imidazo[2,1-b][1,3]oxazin-7-yl)oxy)phenyl)-3,5-dioxo-2,3,4,5-tetrahydro-1,2,4-triazine-6-carbonitrile], in experiment [1], the THRβ-Selectivity amounted to 11.6. On the same count and under the same terms, then `N#Cc1nn(-c2cc(Cl)c(Oc3ccc4nccc(C5CC5)c4c3)c(Cl)c2)c(=O)[nH]c1=O` [Example 52, 2-(3,5-dichloro-4-((4-cyclopropylquinolin-6-yl)oxy)phenyl)-3,5-dioxo-2,3,4,5-tetrahydro-1,2,4-triazine-6-carbonitrile], with 11.9.

On to `O=C(Nc1cc(Cl)c(Oc2ccc3ncn(C4CC4)c3c2)c(Cl)c1)c1noc(=O)[nH]1` [Example 22, N-(3,5-dichloro-4-((1-cyclopropyl-1H-benzo[d]imidazol-6-yl)oxy)phenyl)-5-oxo-4,5-dihydro-1,2,4-oxadiazole-3-carboxamide], for which the THRβ-Selectivity is on record as 5.9 in experiment [1] and above 253.0 in experiment [2]. On the same counts, the results for `Cc1n[nH]c2ccc(Oc3c(Cl)cc(NC(=O)c4noc(=O)[nH]4)cc3Cl)cc12` [Example 4, N-(3,5-dichloro-4-((3-methyl-1H-indazol-5-yl)oxy)phenyl)-5-oxo-4,5-dihydro-1,2,4-oxadiazole-3-carboxamide] are 6.6 and 18.8. `CC1(n2cnc3ccc(Oc4c(Cl)cc(-n5nc(C#N)c(=O)[nH]c5=O)cc4Cl)cc32)CC1` [Example 44, 2-(3,5-dichloro-4-((1-(1-methylcyclopropyl)-1H-benzo[d]imidazol-6-yl)oxy)phenyl)-3,5-dioxo-2,3,4,5-tetrahydro-1,2,4-triazine-6-carbonitrile] returned a THRβ-Selectivity in experiment [1] of 10.1. With `N#Cc1nn(-c2cc(Cl)c(Oc3ccc4ncccc4c3)c(Cl)c2)c(=O)[nH]c1=O` [Example 13, 2-(3,5-dichloro-4-(quinolin-6-yloxy)phenyl)-3,5-dioxo-2,3,4,5-tetrahydro-1,2,4-triazine-6-carbonitrile], the THRβ-Selectivity in experiment [1] is 5.5; in experiment [2] it was 3.7. The compound `N#Cc1nn(-c2cc(Cl)c(Oc3ccc4nc(C5CC5)ccc4c3)c(Cl)c2)c(=O)[nH]c1=O` [Example 26, 2-(3,5-dichloro-4-((2-cyclopropylquinolin-6-yl)oxy)phenyl)-3,5-dioxo-2,3,4,5-tetrahydro-1,2,4-triazine-6-carbonitrile] displayed a THRβ-Selectivity in experiment [1] of 3.3. The same measure, in the same setting: then `CC(C)n1c(=O)[nH]c2ccc(Oc3c(Cl)cc(NC(=O)c4noc(=O)[nH]4)cc3Cl)cc21` [Example 30, N-(3,5-dichloro-4-((3-isopropyl-2-oxo-2,3-dihydro-1H-benzo[d]imidazol-5-yl)oxy)phenyl)-5-oxo-4,5-dihydro-1,2,4-oxadiazole-3-carboxamide], with 9.9.

On to `Cc1cnc2ccc(Oc3c(Cl)cc(-n4nc(C#N)c(=O)[nH]c4=O)cc3Cl)cc2c1` [Example 16, 2-(3,5-dichloro-4-((3-methylquinolin-6-yl)oxy)phenyl)-3,5-dioxo-2,3,4,5-tetrahydro-1,2,4-triazine-6-carbonitrile], for which the THRβ-Selectivity in experiment [1] was found to be 7.1; in experiment [2] it was 68.1.

In the case of `O=C(Nc1cc(Cl)c(Oc2ccc3nc(C4CC4)ccc3c2)c(Cl)c1)c1noc(=O)[nH]1` [Example 24, N-(3,5-dichloro-4-((2-cyclopropylquinolin-6-yl)oxy)phenyl)-5-oxo-4,5-dihydro-1,2,4-oxadiazole-3-carboxamide], the THRβ-Selectivity in experiment [1] turned out to be 4.8; in experiment [2], 8.1. On the same counts, the results for `Cc1n[nH]c2ccc(Oc3c(Cl)cc(-n4nc(C#N)c(=O)[nH]c4=O)cc3Cl)cc12` [Example 3, 2-(3,5-dichloro-4-((3-methyl-1H-indazol-5-yl)oxy)phenyl)-3,5-dioxo-2,3,4,5-tetrahydro-1,2,4-triazine-6-carbonitrile] are 8.5 and 32.0.

In experiment [1], `O=C(Nc1cc(Cl)c(Oc2ccc3ncn(C4(C(F)(F)F)CC4)c3c2)c(Cl)c1)c1noc(=O)[nH]1` [Example 53, N-(3,5-dichloro-4-((1-(1-(trifluoromethyl)cyclopropyl)-1H-benzo[d]imidazol-6-yl)oxy)phenyl)-5-oxo-4,5-dihydro-1,2,4-oxadiazole-3-carboxamide] showed a THRβ-Selectivity of 14.7. On the same count and under the same terms, under `O=C(Nc1cc(Cl)c(Oc2ccc3nccc(C4CC4)c3c2)c(Cl)c1)c1noc(=O)[nH]1` [Example 51, N-(3,5-dichloro-4-((4-cyclopropylquinolin-6-yl)oxy)phenyl)-5-oxo-4,5-dihydro-1,2,4-oxadiazole-3-carboxamide] stands 8.1; under `O=C(Nc1cc(Cl)c(Oc2ccc3ncn(C4(C(F)F)CC4)c3c2)c(Cl)c1)c1noc(=O)[nH]1` [Example 55, N-(3,5-dichloro-4-((1-(1-(difluoromethyl)cyclopropyl)-1H-benzo[d]imidazol-6-yl)oxy)phenyl)-5-oxo-4,5-dihydro-1,2,4-oxadiazole-3-carboxamide], 14.3. Consider `CCc1ccnc2ccc(Oc3c(Cl)cc(-n4nc(C#N)c(=O)[nH]c4=O)cc3Cl)cc12` [Example 35, 2-(3,5-dichloro-4-((4-ethylquinolin-6-yl)oxy)phenyl)-3,5-dioxo-2,3,4,5-tetrahydro-1,2,4-triazine-6-carbonitrile], for which, in experiment [1], the THRβ-Selectivity is listed as 10.2. The same measure, in the same setting: then `CC(C)(C)n1cnc2ccc(Oc3c(Cl)cc(-n4nc(C#N)c(=O)[nH]c4=O)cc3Cl)cc21` [Example 38, 2-(4-((1-(tert-butyl)-1H-benzo[d]imidazol-6-yl)oxy)-3,5-dichlorophenyl)-3,5-dioxo-2,3,4,5-tetrahydro-1,2,4-triazine-6-carbonitrile], with 8.4. The same measure, in the same setting: under `O=C(Nc1cc(Cl)c(Oc2ccc3nc4n(c3c2)CCCO4)c(Cl)c1)c1noc(=O)[nH]1` [Example 39, N-(3,5-dichloro-4-((3,4-dihydro-2H-benzo[4,5]imidazo[2,1-b][1,3]oxazin-7-yl)oxy)phenyl)-5-oxo-4,5-dihydro-1,2,4-oxadiazole-3-carboxamide] stands 5.1. On the same count and under the same terms, under `CC1(n2cnc3ccc(Oc4c(Cl)cc(NC(=O)c5noc(=O)[nH]5)cc4Cl)cc32)CC1` [Example 43, N-(3,5-dichloro-4-((1-(1-methylcyclopropyl)-1H-benzo[d]imidazol-6-yl)oxy)phenyl)-5-oxo-4,5-dihydro-1,2,4-oxadiazole-3-carboxamide] stands 11.8; under `CC(C)(C)n1cnc2ccc(Oc3c(Cl)cc(NC(=O)c4noc(=O)[nH]4)cc3Cl)cc21` [Example 37, N-(4-((1-(tert-butyl)-1H-benzo[d]imidazol-6-yl)oxy)-3,5-dichlorophenyl)-5-oxo-4,5-dihydro-1,2,4-oxadiazole-3-carboxamide], 8.3; under `CCc1c[nH]c2ccc(Oc3c(Cl)cc(-n4nc(C#N)c(=O)[nH]c4=O)cc3Cl)cc12` [Example 59, 2-(3,5-dichloro-4-((3-ethyl-1H-indol-5-yl)oxy)phenyl)-3,5-dioxo-2,3,4,5-tetrahydro-1,2,4-triazine-6-carbonitrile], 8.4. Compound `CCc1ccnc2ccc(Oc3c(Cl)cc(NC(=O)c4noc(=O)[nH]4)cc3Cl)cc12` [Example 36, N-(3,5-dichloro-4-((4-ethylquinolin-6-yl)oxy)phenyl)-5-oxo-4,5-dihydro-1,2,4-oxadiazole-3-carboxamide] came in with a THRβ-Selectivity in experiment [1] of 7.1. Same read-out and setting: under `N#Cc1nn(-c2cc(Cl)c(Oc3ccc4ncn(C5(C(F)F)CC5)c4c3)c(Cl)c2)c(=O)[nH]c1=O` [Example 56, 2-(3,5-dichloro-4-((1-(1-(difluoromethyl)cyclopropyl)-1H-benzo[d]imidazol-6-yl)oxy)phenyl)-3,5-dioxo-2,3,4,5-tetrahydro-1,2,4-triazine-6-carbonitrile] stands 9.0.
